Measurements: ChEMBL document CHEMBL1139907, “Further studies on hepatitis C virus NS5B RNA-dependent RNA polymerase inhibitors toward improved replicon cell activities: benzimidazole and structurally related compounds bearing the 2-morpholinophenyl moiety” (Bioorg Med Chem Lett, 2007)

Tests used:
[1] = system: Hepacivirus hominis; test: Ratio of EC50 of HCV to IC50 for HCV NS5B polymerase
[2] = system: Hepatitis C virus; test: Antiviral activity against HCV in Huh-5-2 cells by replicon assay; type: functional, organism-based, Hepacivirus hominis
[3] = Inhibition of HCV NS5B polymerase; parameters: species or system Hepacivirus hominis
[4] = Cytotoxicity against Huh-5-2 cells; type: cell-based; settings: human

Row | SMILES | Ratio [1] | EC50 [2] | IC50 [3] | CC50 [4]
1 | O=C(O)c1ccc2c(c1)nc(-c1ccc(OCc3cc(N4CCCC4=O)ccc3N3CCC(O)CC3)cc1F)n2C1CCCCC1 | 9.3 | 1400 nM | 150 nM | > 20000 nM
2 | COCC(=O)N(C)c1ccc(N2CCOCC2)c(COc2ccc(-c3nc4cc(C(=O)O)ccc4n3C3CCCCC3)c(F)c2)c1 | 12 | 1200 nM | 99 nM | > 20000 nM
3 | O=C(O)c1ccc2c(c1)cc(-c1ccc(OCc3cc(N4CCCC4=O)ccc3N3CCOCC3)cc1)n2C1CCCCC1 | 7 | 210 nM | 30 nM | > 20000 nM
4 | O=C(O)c1ccc2c(c1)nc(-c1ccc(OCc3cc(N4CCCC4=O)ccc3Oc3ccc(Cl)cc3)cc1F)n2C1CCCCC1 | 13 | 3100 nM | 230 nM | > 20000 nM
5 | O=C(O)c1ccc2c(C3CCCCC3)c3n(c2c1)CCOc1cc(OCc2cc(N4CCCC4=O)ccc2-c2ccc(Cl)cc2)ccc1-3 | 3.1 | 60 nM | 19 nM | > 20000 nM
6 | CN1CCN(c2ccc(N3CCCC3=O)cc2COc2ccc(-c3nc4cc(C(=O)O)ccc4n3C3CCCCC3)c(F)c2)CC1 | 8.5 | 1100 nM | 130 nM | > 20000 nM
7 | CC(=O)Nc1ccc(N2CCOCC2)c(COc2ccc(-c3nc4cc(C(=O)O)ccc4n3C3CCCCC3)c(F)c2)c1 | 13 | 910 nM | 70 nM | > 20000 nM
8 | O=C(O)c1ccc2c(c1)nc(-c1ccc(OCc3ccccc3N3CCOCC3)cc1F)n2C1CCCCC1 | 7.7 | 1000 nM | 130 nM | > 20000 nM
9 | O=C(O)c1ccc2c(c1)nc(-c1ccc(OCc3cc(N4CCCC4=O)ccc3N3CCOCC3=O)cc1F)n2C1CCCCC1 | > 30 | > 30000 nM | 1000 nM | > 20000 nM
10 | COc1ccc(N2CCCC2=O)cc1COc1ccc(-c2nc3cc(C(=O)O)ccc3n2C2CCCCC2)c(F)c1 | 3.4 | 1400 nM | 410 nM | > 20000 nM
11 | O=C(O)c1ccc2c(c1)nc(-c1ccc(OCc3cc(N4CCCCC4=O)ccc3N3CCOCC3)cc1F)n2C1CCCCC1 | 6.4 | 580 nM | 90 nM | > 20000 nM
12 | CC(C)NC(=O)c1ccc(N2CCOCC2)c(COc2ccc(-c3nc4cc(C(=O)O)ccc4n3C3CCCCC3)c(F)c2)c1 | 7.9 | 380 nM | 48 nM | > 20000 nM
13 | O=C(O)c1ccc2c(c1)nc(-c1ccc(OCc3cc(N4CCCC4=O)ccc3N3CCOCC3)cc1F)n2C1CCCCC1 | 4.7 | 310 nM | 66 nM | > 20000 nM
14 | O=C(O)c1ccc2c(c1)nc(-c1ccc(OCc3cc(N4CCCC4=O)ccc3N3CCC(C(=O)O)CC3)cc1F)n2C1CCCCC1 | 19 | 3500 nM | 180 nM | > 20000 nM
15 | CN(C)C(=O)c1ccc(N2CCOCC2)c(COc2ccc(-c3nc4cc(C(=O)O)ccc4n3C3CCCCC3)c(F)c2)c1 | 6.5 | 440 nM | 68 nM | > 20000 nM
16 | Cn1c(-c2ccc(OCc3cc(N4CCCC4=O)ccc3N3CCOCC3)cc2)c(C2CCCCC2)c2ccc(C(=O)O)cc21 | 7.2 | 52 nM | 7.2 nM | > 20000 nM
17 | O=C(O)c1ccc2c(c1)nc(-c1ccc(OCc3cc(N4CCCS4(=O)=O)ccc3N3CCOCC3)cc1F)n2C1CCCCC1 | 7.7 | 550 nM | 71 nM | > 20000 nM
18 | O=C(O)c1ccc2c(c1)nc(-c1ccc(OCc3cc(N4CCCC4=O)ccc3N3CCCCC3)cc1F)n2C1CCCCC1 | 5.3 | 800 nM | 150 nM | > 20000 nM
19 | O=C(O)c1ccc2c(c1)nc(-c1ccc(OCc3cc(N4CCCC4=O)ccc3-c3ccc(Cl)cc3)cc1F)n2C1CCCCC1 | 19 | – | – | > 20000 nM
20 | COCCN(C)c1ccc(N2CCCC2=O)cc1COc1ccc(-c2nc3cc(C(=O)O)ccc3n2C2CCCCC2)c(F)c1 | 5 | 1300 nM | 260 nM | > 20000 nM
21 | O=C(O)c1ccc2c(C3CCCCC3)c3n(c2c1)CCOc1cc(OCc2cc(N4CCCC4=O)ccc2N2CCOCC2)ccc1-3 | 1.1 | 7.6 nM | 7.2 nM | > 20000 nM
22 | O=C(O)c1ccc2c(c1)nc(-c1ccc(OCc3cc(Cl)ccc3N3CCOCC3)cc1F)n2C1CCCCC1 | 12 | 1200 nM | 100 nM | > 20000 nM
23 | CC(=O)N(c1ccc(N2CCOCC2)c(COc2ccc(-c3nc4cc(C(=O)O)ccc4n3C3CCCCC3)c(F)c2)c1)C(C)C | 6.4 | 270 nM | 42 nM | > 20000 nM
24 | CC(=O)N(C)c1ccc(N2CCOCC2)c(COc2ccc(-c3nc4cc(C(=O)O)ccc4n3C3CCCCC3)c(F)c2)c1 | 7.3 | 370 nM | 51 nM | > 20000 nM
25 | CC(=O)N1CCN(c2ccc(N3CCCC3=O)cc2COc2ccc(-c3nc4cc(C(=O)O)ccc4n3C3CCCCC3)c(F)c2)CC1 | 8.6 | 950 nM | 110 nM | > 20000 nM
